Measured values published in the supplement of paper PMC9663587.

Tests used:
YKL-5-124 = compound: C=CC(=O)Nc1ccc(C(=O)Nc2[nH]nc3c2CN(C(=O)N[C@H](CN(C)C)c2ccccc2)C3(C)C)cc1 [YKL-5-124]; assay: increase in dead-cell fraction, 72 h; higher = more death;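 further: breast cancer cell lines in 384-well plates, stained with Hoechst plus LIVE/DEAD far red dye and imaged, cells above an LDR intensity threshold counted dead, Hoechst-negative corpses included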
BSJ-03-123 = compound: CC(=O)c1c(C)c2cnc(Nc3ccc(N4CCN(CCOCCOCCOCCNC(=O)COc5cccc6c5C(=O)N(C5CCC(=O)NC5=O)C6=O)CC4)cn3)nc2n(C2CCCC2)c1=O [BSJ-03-123]; assay: as above
[1] = compound: CC(=O)c1c(C)c2cnc(Nc3ccc(N4CCNCC4)cn3)nc2n(C2CCCC2)c1=O; assay: as above
[2] = compound: CCN1CCN(Cc2ccc(Nc3ncc(F)c(-c4cc(F)c5nc(C)n(C(C)C)c5c4)n3)nc2)CC1; assay: as above
Neratinib/HKI272 [3] = compound: T1, CCOc1cc2ncc(C#N)c(Nc3ccc(OCc4ccccn4)c(Cl)c3)c2cc1NC(=O)/C=C/CN(C)C [Neratinib/HKI272]; assay: as above
[4] = compound: CCc1cnn2c(NCc3ccc[n+]([O-])c3)cc(N3CCCC[C@H]3CCO)nc12; assay: as above
LEE011/Ribociclib = compound: CN(C)C(=O)c1cc2cnc(Nc3ccc(N4CCNCC4)cn3)nc2n1C1CCCC1 [LEE011/Ribociclib]; assay: as above
THZ531 = compound: CN(C)C/C=C/C(=O)Nc1ccc(C(=O)N2CCC[C@@H](Nc3ncc(Cl)c(-c4c[nH]c5ccccc45)n3)C2)cc1 [THZ531]; assay: as above
THZ1 = compound: CN(C)C/C=C/C(=O)Nc1ccc(C(=O)Nc2cccc(Nc3ncc(Cl)c(-c4c[nH]c5ccccc45)n3)c2)cc1 [THZ1]; assay: as above
Flavopiridol [5] = compound: T2, CN1CC[C@H](c2c(O)cc(O)c3c(=O)cc(-c4ccccc4Cl)oc23)[C@H](O)C1 [Flavopiridol]; assay: as above
Neratinib/HKI272 [6] = compound: T1, Neratinib/HKI272; assay: GR value, 72 h; higher = faster growth (1 = untreated, <0 = killing);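 further: breast cancer and non-malignant breast epithelial lines, nine half-log doses, viable cells counted by Hoechst and LIVE/DEAD dye imaging versus time-zero plates and DMSO controls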
Flavopiridol [7] = compound: T2, Flavopiridol; assay: as above

With CAMA1 the “increase in dead-cell fraction” value (YKL-5-124; 0.001 µM) was 0.0009, the “increase in dead-cell fraction” value (YKL-5-124; 0.003162 µM) was 0.0059 and the “increase in dead-cell fraction” value (YKL-5-124; 0.01 µM) was 0.0122. For the same cell line, the “increase in dead-cell fraction” value (YKL-5-124; 0.03162 µM) was 0.0047, the “increase in dead-cell fraction” value (YKL-5-124; 0.1 µM) was 0.006 and the “increase in dead-cell fraction” value (YKL-5-124; 0.3162 µM) was 0.0148. The “increase in dead-cell fraction” value (YKL-5-124; 1 µM) was -0.0034, the “increase in dead-cell fraction” value (YKL-5-124; 3.162 µM) was 0.01 and the “increase in dead-cell fraction” value (YKL-5-124; 10 µM) was 0.322. The “increase in dead-cell fraction” value (BSJ-03-123; 0.001 µM) was -0.0067, the “increase in dead-cell fraction” value (BSJ-03-123; 0.003162 µM) was -0.0023 and the “increase in dead-cell fraction” value (BSJ-03-123; 0.01 µM) was 0.0007. For the same cell line, the “increase in dead-cell fraction” value (BSJ-03-123; 0.03162 µM) was -0.0025, the “increase in dead-cell fraction” value (BSJ-03-123; 0.1 µM) was 0.0035 and the “increase in dead-cell fraction” value (BSJ-03-123; 0.3162 µM) was -0.0021. For the same cell line, the “increase in dead-cell fraction” value (BSJ-03-123; 1 µM) was 0.0045, the “increase in dead-cell fraction” value (BSJ-03-123; 3.162 µM) was -0.0077 and the “increase in dead-cell fraction” value (BSJ-03-123; 10 µM) was 0.0255. The “increase in dead-cell fraction” value ([1]; 0.0003162 µM) was -0.0052, the “increase in dead-cell fraction” value ([1]; 0.001 µM) was 0.0045 and the “increase in dead-cell fraction” value ([1]; 0.003162 µM) was -0.006. The “increase in dead-cell fraction” value ([1]; 0.01 µM) was -0.0044, the “increase in dead-cell fraction” value ([1]; 0.03162 µM) was -0.0065 and the “increase in dead-cell fraction” value ([1]; 0.1 µM) was -0.0028. The “increase in dead-cell fraction” value ([1]; 0.3162 µM) was 0.0013, the “increase in dead-cell fraction” value ([1]; 1 µM) was 0 and the “increase in dead-cell fraction” value ([1]; 3.162 µM) was -0.0024. The “increase in dead-cell fraction” value ([2]; 0.001 µM) was -0.0054, the “increase in dead-cell fraction” value ([2]; 0.003162 µM) was -0.0135 and the “increase in dead-cell fraction” value ([2]; 0.01 µM) was -0.0075. The “increase in dead-cell fraction” value ([2]; 0.03162 µM) was -0.0084, the “increase in dead-cell fraction” value ([2]; 0.1 µM) was 0.0035 and the “increase in dead-cell fraction” value ([2]; 0.3162 µM) was -0.0078. For the same cell line, the “increase in dead-cell fraction” value ([2]; 1 µM) was -0.0025, the “increase in dead-cell fraction” value ([2]; 3.162 µM) was -0.0084 and the “increase in dead-cell fraction” value ([2]; 10 µM) was 0.0143. For the same cell line, the “increase in dead-cell fraction” value (Neratinib/HKI272 [3]; 0.0003162 µM) was 0.0013, the “increase in dead-cell fraction” value (Neratinib/HKI272 [3]; 0.001 µM) was 0.0021 and the “increase in dead-cell fraction” value (Neratinib/HKI272 [3]; 0.003162 µM) was -0.0002. The “increase in dead-cell fraction” value (Neratinib/HKI272 [3]; 0.01 µM) was 0.0022, the “increase in dead-cell fraction” value (Neratinib/HKI272 [3]; 0.03162 µM) was 0.0081 and the “increase in dead-cell fraction” value (Neratinib/HKI272 [3]; 0.1 µM) was 0.0011. For the same cell line, the “increase in dead-cell fraction” value (Neratinib/HKI272 [3]; 0.3162 µM) was 0.0067, the “increase in dead-cell fraction” value (Neratinib/HKI272 [3]; 1 µM) was 0.0021 and the “increase in dead-cell fraction” value (Neratinib/HKI272 [3]; 3.162 µM) was 0.0342. The “increase in dead-cell fraction” value ([4]; 0.0001 µM) was -0.0004, the “increase in dead-cell fraction” value ([4]; 0.0003162 µM) was -0.0044 and the “increase in dead-cell fraction” value ([4]; 0.001 µM) was 0.0031. For the same cell line, the “increase in dead-cell fraction” value ([4]; 0.003162 µM) was 0.0113, the “increase in dead-cell fraction” value ([4]; 0.01 µM) was 0.0533 and the “increase in dead-cell fraction” value ([4]; 0.03162 µM) was 0.153. The “increase in dead-cell fraction” value ([4]; 0.1 µM) was 0.46, the “increase in dead-cell fraction” value ([4]; 0.3162 µM) was 0.518 and the “increase in dead-cell fraction” value ([4]; 1 µM) was 0.56. For the same cell line, the “increase in dead-cell fraction” value (LEE011/Ribociclib; 0.001 µM) was -0.0064, the “increase in dead-cell fraction” value (LEE011/Ribociclib; 0.003162 µM) was -0.0056 and the “increase in dead-cell fraction” value (LEE011/Ribociclib; 0.01 µM) was -0.0011. For the same cell line, the “increase in dead-cell fraction” value (LEE011/Ribociclib; 0.03162 µM) was -0.0009, the “increase in dead-cell fraction” value (LEE011/Ribociclib; 0.1 µM) was 0.006 and the “increase in dead-cell fraction” value (LEE011/Ribociclib; 0.3162 µM) was 0.0058. The “increase in dead-cell fraction” value (LEE011/Ribociclib; 1 µM) was 0.011, the “increase in dead-cell fraction” value (LEE011/Ribociclib; 3.162 µM) was 0.0045 and the “increase in dead-cell fraction” value (LEE011/Ribociclib; 10 µM) was 0.0049. For the same cell line, the “increase in dead-cell fraction” value (THZ531; 0.0001 µM) was 0.001, the “increase in dead-cell fraction” value (THZ531; 0.0003162 µM) was -0.0014 and the “increase in dead-cell fraction” value (THZ531; 0.001 µM) was -0.0002. For the same cell line, the “increase in dead-cell fraction” value (THZ531; 0.003162 µM) was -0.005, the “increase in dead-cell fraction” value (THZ531; 0.01 µM) was 0.0035 and the “increase in dead-cell fraction” value (THZ531; 0.03162 µM) was 0.0054. For the same cell line, the “increase in dead-cell fraction” value (THZ531; 0.1 µM) was 0.0126, the “increase in dead-cell fraction” value (THZ531; 0.3162 µM) was 0.0499 and the “increase in dead-cell fraction” value (THZ531; 1 µM) was 0.189. For the same cell line, the “increase in dead-cell fraction” value (THZ1; 0.0001 µM) was -0.0002, the “increase in dead-cell fraction” value (THZ1; 0.0003162 µM) was 0.0023 and the “increase in dead-cell fraction” value (THZ1; 0.001 µM) was -0.002. The “increase in dead-cell fraction” value (THZ1; 0.003162 µM) was -0.0017, the “increase in dead-cell fraction” value (THZ1; 0.01 µM) was 0.0023 and the “increase in dead-cell fraction” value (THZ1; 0.03162 µM) was 0.0135. The “increase in dead-cell fraction” value (THZ1; 0.1 µM) was 0.0187, the “increase in dead-cell fraction” value (THZ1; 0.3162 µM) was 0.0397 and the “increase in dead-cell fraction” value (THZ1; 1 µM) was 0.187. For the same cell line, the “increase in dead-cell fraction” value (Flavopiridol [5]; 0.0001 µM) was 0.0013, the “increase in dead-cell fraction” value (Flavopiridol [5]; 0.0003162 µM) was 0.0009 and the “increase in dead-cell fraction” value (Flavopiridol [5]; 0.001 µM) was 0.0022. For the same cell line, the “increase in dead-cell fraction” value (Flavopiridol [5]; 0.003162 µM) was 0.0011, the “increase in dead-cell fraction” value (Flavopiridol [5]; 0.01 µM) was 0.0016 and the “increase in dead-cell fraction” value (Flavopiridol [5]; 0.03162 µM) was 0.0052. The “increase in dead-cell fraction” value (Flavopiridol [5]; 0.1 µM) was 0.0067, the “increase in dead-cell fraction” value (Flavopiridol [5]; 0.3162 µM) was 0.0207 and the “increase in dead-cell fraction” value (Flavopiridol [5]; 1 µM) was 0.107. The GR value (Neratinib/HKI272 [6]; 0.0003162 µM) was 1.08 GR, the GR value (Neratinib/HKI272 [6]; 0.001 µM) was 1.01 GR and the GR value (Neratinib/HKI272 [6]; 0.003162 µM) was 1.01 GR. The GR value (Neratinib/HKI272 [6]; 0.01 µM) was 0.989 GR, the GR value (Neratinib/HKI272 [6]; 0.03162 µM) was 1 GR and the GR value (Neratinib/HKI272 [6]; 0.1 µM) was 0.993 GR. It also gave a GR value (Neratinib/HKI272 [6]; 0.3162 µM) of 0.949 GR, a GR value (Neratinib/HKI272 [6]; 1 µM) of 0.837 GR and a GR value (Neratinib/HKI272 [6]; 3.162 µM) of 0.455 GR. It also gave a GR value (Flavopiridol [7]; 0.0001 µM) of 1.25 GR, a GR value (Flavopiridol [7]; 0.0003162 µM) of 1.12 GR and a GR value (Flavopiridol [7]; 0.001 µM) of 0.73 GR. The GR value (Flavopiridol [7]; 0.003162 µM) was 1.05 GR, the GR value (Flavopiridol [7]; 0.01 µM) was 0.907 GR and the GR value (Flavopiridol [7]; 0.03162 µM) was 0.862 GR. It also gave a GR value (Flavopiridol [7]; 0.1 µM) of 0.807 GR, a GR value (Flavopiridol [7]; 0.3162 µM) of 0.194 GR and a GR value (Flavopiridol [7]; 1 µM) of -0.111 GR.
